Measurements taken from US20080075796A1, “Compositions and Methods for Controlling Insects” (TyraTech, Inc., priority 2003, published 2008).

Legend:
[1] = system: head lice Pediculus humanus capitus; assay: Pesticidal effect on head lice (LT100); format: in vivo; conditions: about 1 ml in dish, about 10 adult head lice
Procedure: (§1) Live adult head lice Pediculus humanus capitus are collected from female and male children between the age of about 4 and 11 living in the Karmos area, Alexandria, Egypt. The insects are collected using fine-toothed louse detector comb and pooled together. The collected lice are kept in dishes and used in the studies within about 30 minutes of their collection.
(§2) Various concentrations of the compositions being tested are prepared in water To allow the pesticidal effect of these compositions to be compared to that of a commercially available lice-killing agent, ivermectin, is dissolved in water. About 1 ml of each concentration of the compositions are applied to a dish, about 1 ml of the ivermectin solution is applied to a dish, and about 1 ml of water is applied to a control dish. About 10 adult head lice are introduced to each dish.
(§3) Treated and control dishes are kept under continuous observation and LT100 is observed. LT refers to the time required to kill a given percentage of insects; thus, LT100 refers to the time required to kill 100% of the lice. Head lice is considered dead if no response to a hard object is found.

[2] = system: Drosophila melanogaster tyramine receptor (TyrR), SEQ ID NO: 2; assay: Receptor-specific binding of 3H-tyramine in Schneider cells transfected with TyrR; conditions: whole cells, FIG. 1
Source text: Tyramine receptor is amplified from Drosophila melanogaster head cDNA phage library GH that is obtained through the Berkeley Drosophila Genome Project (Baumann, A., 1999, Drosophila melanogaster mRNA for octopamine receptor, splice variant 1B NCBI direct submission, Accession AJ007617). The nucleic acid sequence and the peptide sequence of TyrR are set forth in SEQ ID NO: 1 and SEQ ID NO: 2, respectively. Phage DNA is purified from this library using a liquid culture lysate. (Baxter, et al., 1999, Insect Biochem Mol Biol 29, 461-467). Briefly, oligonucleotides that are used to amplify the open reading frame of the Drosophila tyramine receptor (TyrR) (Han, et al., 1998, J Neurosci 18, 3650-3658; von Nickisch-Rosenegk, et al., 1996. Insect Biochem Mol Biol 26, 817-827) consist of the 5′ oligonucleotide: 5′[…] 3′ (SEQ ID NO: 7) and 3′ oligonucleotide: 5′taatctaga[…] […]
Cells transfected with the tyramine receptor (about 1×10^6 cells/ml) are cultured in each well of a multi-well plate. […] Solubilized cells are transferred into about 4 ml Liquid Scintillation Solution (LSS) and vigorously vortexed for about 30 sec before counting the radioactivity using a Liquid Scintillation β-counter (Beckman, Model LS1801) (LSC).
With reference to FIG. 1, receptor specific binding data is expressed as fmol specific binding per 1×10^6 cells and measured as a function of ^3H-tyramine concentration. […]

control Schneider cells = assay: Intracellular Ca2+ mobilization in control Schneider cells; format: cell-based, Drosophila; conditions: FIG. 22
Procedure: Intracellular calcium ion concentrations ([Ca^2+]i) are measured by using the acetoxymethyl (AM) ester of the fluorescent indicator fura-2 (Enan, et al., Biochem. Pharmacol vol 51, 447-454). In this study, cells expressing tyramine receptor are grown under standard conditions. A cell suspension is prepared in assay buffer (140 mM NaCL, 10 mM HEPES, 10 mM glucose, 5 mM KCl, 1 mM CaCl2, 1 mM MgCl2) and cell number adjusted to about 2×10^6 cells per ml. Briefly, about 1.0 ml cell suspension (about 2×10^6 cells) is incubated with about 5 μM Fura 2/AM for about 30 min at about 28° C. After incubation, the cells are pelleted at about 3700 rpm for about 10 sec at room temperature and then resuspended in about 1.5 ml assay buffer. [Ca^2+]i changes are analyzed in spectrofluorometer in the presence and absence of test chemicals. Excitation wave lengths are about 340 nm (generated by Ca^2+-bound fura-2) and about 380 nm (corresponding to Ca^2+-free fura-2). The fluorescence intensity is monitored at an emission wave length of about 510 nm. No absorbance of fluorescence artifacts are observed with any of the compounds used. The ratio of about 340/380 nm is calculated and plotted as a function of time.
Changes in intracellular Ca^2+ levels are calculated based on the difference between the 340/380 fluorescence ratios before and after approximately 150 seconds of the treatment.

[3] = system: untransfected Schneider cells; assay: Response of untransfected Schneider cells to tyramine; format: binding, Drosophila; conditions: concentration as high as about 100 μM
Carpenter ants [4] = assay: Repellent effect on carpenter ants (treated filter paper); format: in vivo
Procedure: (§4) Adult insect are randomly selected for testing the repellent effect of compositions and are not individually marked. About 5 insects per replicate are used. About 3 replicates are used for each treatment. Untreated control tests are included with only solvent (acetone) application to an equal sized population/replications, held under identical conditions. A filter paper (about 80 cm^2) is treated with the composition (about 100 mg in […] acetone). After about 3 min of air drying, the filter paper is placed in a dish and repellency against insects is performed. Insects are released to the dish, one insect at a time at the far end of the dish. Using one or more stopwatches, the time spent on either the filter paper or the untreated surface of the dish is recorded up to about 300 seconds. Repellency ratio (RR) is calculated as follows: RR=[(time on control surface−time on treated surface)/total time of test]. If RR>0 then the composition is considered to have a repellant effect, that is to say, an effect, wherein more insects are repelled away from treated surface than the control surface; if RR<0 then the composition is considered not to have a repellant effect.
(§5) The repellent effect of various plant essential oils is tested by treating a filter paper with the test oils. After about five minutes at room temperature, the paper is placed in a dish and ants are introduced one at a time. The repellency is determined as described above, in Example 14. Oils are tested alone. Additionally, oils are mixed to form compositions, which are then tested.
For purposes of comparison to the repellent effect of various compositions made of various plant essential oils, the repellency of an insect control agent, the commercial repellent 29% DEET, which may be purchased under the name, REPEL® (Wisconsin Pharmacal Company, Inc, Jackson, Wyo.), is measured against Carpenter ants by treating a filter paper with the 29% DEET. After about five minutes at room temperature, the paper is placed in a dish and ants are introduced one at a time. The repellency is determined as described above, in Example 14.
as §5, with “of commercial repellent DEET and” for “of”

red ants = assay: Repellent effect on red ants (visits to treated paper disk); format: in vivo; conditions: for number of trips by red ants to treated paper disk: 100%
Procedure: Repellent effect of various compositions containing plant essential oils on red ants is tested in the following manner. A paper disk is treated with about 200 μl of each composition and placed in a dish. An untreated paper disk is placed in a control dish. Also, a paper disk is treated with about 200 μl 100% DEET and placed in a dish to compare the repellant effect of the compositions to that of DEET. Red ants are introduced into each dish. Insect behavior and number of visits to the treated paper disk are monitored for about 5 minutes. The number of visits by a red ant to the paper disk is recorded.
Residuality, with regard to pesticidal effect and repellent effect, is tested by treating a paper disk with the composition being tested, keeping the treated paper disk under laboratory conditions for a predetermined period of time (e.g., 0 min, 6 hours, 1 day, 3 days, 5 days, 7 days), and exposing red ants to the treated paper disk in the above described manners.

Carpenter ants [5] = assay: Repellent effect on carpenter ants (treated filter paper); format: in vivo; conditions: DEET in concentrations of about 5 to 10%
Procedure: as §4
The repellent effect of various plant essential oils is tested by treating a filter paper with the test oils. […] The repellency is determined as described above, in Example 14. […]

[6] = system: head lice Pediculus humanus capitus; assay: Pesticidal effect on head lice; format: in vivo; conditions: time to kill 100% of the lice, dissolved in water
Procedure: as §1, §2, §3

ivermectin [listing 1 of 2 here]
LT100 (time required to kill 100% of the lice) [1]: 5 min

NCCc1ccc(O)cc1 [Tyramine, tyramine]
3H-tyramine concentration at which maximum specific binding occurs [2]: about 5 nM | mobilization of Ca2+ in control cells (control Schneider cells): induce mobilization of Ca^2+ | response of untransfected cells [3]: do not respond

CCN(CC)C(=O)c1cccc(C)c1 [DEET]
Sec on T (Carpenter ants [4]; 5% DEET, Day 0): 282 (10) Sec | Sec on T (Carpenter ants [4]; 10% DEET, Day 0): 260 (6) Sec | sec. on T surface (Carpenter ants [4]; 29% DEET (REPEL), Day 0): 02.4 s | repellency (Carpenter ants [4]; DEET about 5 to 10%, in words): no signs of repellency | number of trips by the red ants to the treated paper disks (red ants; 0 min after treatment of disk): 0 | residuality of repellent effect (red ants; 100% DEET, in words): begins to loose potency after 1 day | number of trips by red ants to treated paper disk (red ants; 0 min after treatment, about 5 minutes observation): 0 | number of trips by red ants to treated paper disk (red ants; 6 hours after treatment): 0 | number of trips by red ants to treated paper disk (red ants; 1 day after treatment): 1 | number of trips by red ants to treated paper disk (red ants; 3 days after treatment): 2 | number of trips by red ants to treated paper disk (red ants; 5 days after treatment): 2 | number of trips by red ants to treated paper disk (red ants; 7 days after treatment): 2 | number of trips by the red ants to the treated paper disks (red ants; 6 hours after treatment of disk): 0 | number of trips by the red ants to the treated paper disks (red ants; 1 day after treatment of disk): 1 | number of trips by the red ants to the treated paper disks (red ants; 3 days after treatment of disk): 2 | number of trips by the red ants to the treated paper disks (red ants; 5 days after treatment of disk): 2 | number of trips by the red ants to the treated paper disks (red ants; 7 days after treatment of disk): 2 | repellency (Carpenter ants [5]): no signs of repellency

ivermectin [listing 2 of 2 here]
LT100 [6]: 5 min
